The values below come from patent publication US10118922B2 (Janssen Pharmaceutica NV, priority 2013, dated 2018).

Structures are written as SMILES.

In assay [1] the target is T1, long form of human GPR120 (Homo sapiens, UniProt Q5NUL3).
T1 construct: host or cells: PathHunter CHO-K1 GPR120 β-Arrestin Cell Line
T1 sequence (Q5NUL3 1-377 isoform Q5NUL3-1): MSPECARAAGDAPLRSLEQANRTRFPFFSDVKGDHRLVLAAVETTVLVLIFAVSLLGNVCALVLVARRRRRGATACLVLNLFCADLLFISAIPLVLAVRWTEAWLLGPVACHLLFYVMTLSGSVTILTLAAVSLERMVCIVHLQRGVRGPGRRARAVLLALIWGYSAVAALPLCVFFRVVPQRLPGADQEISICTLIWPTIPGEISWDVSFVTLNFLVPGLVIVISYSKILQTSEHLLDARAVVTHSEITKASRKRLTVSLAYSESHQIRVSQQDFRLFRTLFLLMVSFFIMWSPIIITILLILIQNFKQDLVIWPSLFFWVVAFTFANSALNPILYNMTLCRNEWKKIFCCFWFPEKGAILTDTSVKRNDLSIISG
The experiment in a line: Human GPR120 DiscoveRx PathHunter beta-arrestin assay, Procedure β-arrestin A. Type of assay: cell-based. Particulars: PathHunter CHO-K1 GPR120 β-Arrestin cells, 3000 cells per well; read-out: hGPR120 β-arrestin A EC50. An excerpt:
The binding of an agonist (medium/long chain fatty acids or small molecule agonists) to the G-protein-coupled receptor GPR120 activates phospholipase C, leading to release of intracellular Ca^+2 through the generation of inositol 1,4,5-trisphosphate (InsP3 or IP3). GPR120 activation can also trigger intracellular signaling via recruitment of Beta-Arrestin. In the present method, agonist-induced activation of the human GPR120 receptor is monitored through the use of PathHunter CHO-K1 GPR120 Beta-Arrestin Cell Line engineered by DiscoveRx, as detailed below. The cell lines are designed to co-express both the ProLink/Enzyme Donor (PK)-tagged GPCR and the Enzyme […] (EA)-tagged Beta-Arrestin fusion proteins. Upon GPR120 receptor stimulation/activation, the EA-tagged Beta-Arrestin portion is translocated to the tagged receptor, where the two enzyme fragments are brought within close proximity. Under these conditions, these fragments can interact and form an active Beta-gal enzyme complex through Enzyme Fragment Complementation (EFC). […] This in vitro assay therefore serves to assess compound agonist activity of the GPR120.
In Procedure β-arrestin A, the cell used were PathHunter CHO-K1 GPR120 β-Arrestin Cell Line, expressing the long form of human GPR120 (Genbank accession number NM_181745), with 3000 cells per well.
The selected CHO-K1 GPR120 β-Arrestin cells were cultured in Ham's F12 media supplemented with 10% fetal bovine serum (FBS), 1% Glutamine, 1×p/s, 800 μg/mL G418 and 300 μg/mL Hygromycin B (for selection). Cell stocks were maintained and grown in a sub-confluent state using standard cell culture procedures. The day before the experiment, the cells were harvested with non-enzymatic cell dissociation buffer and re-suspended in complete growth media at the desired concentration. […] The seeded plates were incubated overnight at 37° C.
On the day of the experiment, the Assay Buffer containing (a) HBSS with Ca^++ and Mg^++, (b) 20 mM HEPES, and (c) 0.1% BSA stabilizer (pH 7.4) was prepared. The growth medium was gently removed from the cell plates and 20 μL of Assay Buffer added to each well. The plate was then incubated at 37° C. for 60 min. […] Five μL of compound dilution was then added to each well and the plate incubated at 37° C. for 90 min. The detection reagents were prepared according to the manufacture's instruction. Twelve μL of the detection reagents were added to each well and the plate incubated at room temperature for 60 min.
The % activity relative to the positive control was calculated using the following equation:
The Fitting Equation was: Y=Bottom+(Top-Bottom)/(1+10^((Log EC50−X)*HillSlope)), where X is the log of the concentration and Y is the response.

Assay [2] concerns the target T2, Human GPR120 short form (Homo sapiens, UniProt Q5NUL3).
T2 construct: expressed in transfected cells
T2 sequence (Q5NUL3 1-361): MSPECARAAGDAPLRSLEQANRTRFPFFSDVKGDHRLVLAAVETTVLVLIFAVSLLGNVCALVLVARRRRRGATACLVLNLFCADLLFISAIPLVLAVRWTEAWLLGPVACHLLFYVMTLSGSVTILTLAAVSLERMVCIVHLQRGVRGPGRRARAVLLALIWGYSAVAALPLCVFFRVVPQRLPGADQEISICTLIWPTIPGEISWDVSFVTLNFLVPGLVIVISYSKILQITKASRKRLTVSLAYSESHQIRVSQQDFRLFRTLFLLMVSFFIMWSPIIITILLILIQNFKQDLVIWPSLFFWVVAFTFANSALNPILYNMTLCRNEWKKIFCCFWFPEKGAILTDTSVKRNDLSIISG
The experiment in a line: Human GPR120 calcium flux assay, Procedure Calcium A. Type of assay: cell-based. Particulars: HEK-293 cells, FLIPR, 2500 cells/well; read-out: GPR120 Ca2+ Assay A EC50. As to the method:
These cells are first loaded with the Ca^+2 sensitive dye, Fluo-4 NR. Upon stimulation, intracellular released Ca^+2 can bind to the dye and alter its fluorescence intensity. This increase in fluorescence signal, and thus the flux in intracellular [Ca^2+], is detected and quantitated by fluorescence imaging using a FLIPR reader. The effect of the agonist is measured as a function of concentration and used to calculate an EC50 based upon a response curve.
In this procedure 2500 cells/well were employed.
A Human GPR120 clone (Genbank accession number NM_001195755.1) was placed into the pcDNA3.1 mammalian expression vector carrying the neomycin resistance gene. A stable mammalian cell was generated by placing the above clone into a HEK293 background. […] Cells were split 2 times a week to keep the cells in the log-phase growth.
In preparation for the assay, HEK cells stably transfected with Human GPR120 (2.5K cells per well in 25 uL growth medium) were seeded into 384-well plates and then incubated overnight (37° C., 5% CO2). The next day, the media was changed to 20 μL assay buffer and the cell starved for 1 h at 37° C. The dye loading solution (2× dye) was prepared using 10 mL assay buffer, 100 μL of 250 mM probenecid, 1 bottle of Component A, and 20 μl of dye in DMSO. Twenty μL of the 2× dye loading buffer was then added to each well. The plates were incubated at 37° C. for 30 min, then at room temperature for an additional 15 minutes, before performing the assay on FLIPR.
The assay was performed on a FLIPR plate reader using the following parameters. Baseline was read for 10 seconds at 1 sec intervals. The program was set to transfer 10 μL of ligand from compound plate to cell plate after baseline reading. Aspiration was executed at: 10 μL/sec speed, 4.6 μL height; Dispensing was executed at: 30 μL/sec speed, 45 μL height. After compound addition, each well was read for 300 sec, with measurements collected at 1 sec intervals.
The kinetic data from the FLIPR was based upon a 5 minute window for data collection. The fluorescence of each sample well was used for individual calculations of a normalized RFU value, which was defined as maximum response minus the minimum response. […] The Fitting Equation was: Y=Bottom+(Top-Bottom)/(1+10^((Log EC50−X)*HillSlope)), where X is the log of the concentration and Y is the response.
(Calcium assays in cells follow changes in intracellular calcium, usually with a dye or a luminescent sensor.)

The EC50 is the concentration giving half of the maximal effect. On to `O=C(O)CCc1cc(F)c(OCc2sc(Cl)cc2-c2ccc(Cl)cc2)c(F)c1` [Cpd 2, 3-(4-{[5-Chloro-3-(4-chlorophenyl)thiophen-2-yl]methoxy}-3,5-difluorophenyl)propanoic acid], for which the EC50 in assay [1] was 97 nM; in assay [2], 30 nM.
Turning to `Cc1sc(-c2ccccc2)c(COc2ccc(CCC(=O)O)c(C)c2C)c1C(F)(F)F` [Cpd 33, 3-(2,3-Dimethyl-4-{[5-methyl-2-phenyl-4-(trifluoromethyl)thiophen-3-yl]methoxy}phenyl)propanoic acid], the EC50 in assay [1] stood at 431 nM; in assay [2], 50 nM.
Taken in the same sequence, the figures for `OCCCc1cc(F)c(OCc2c(Cl)nsc2-c2ccc(Cl)cc2)c(F)c1` [Cpd 78, 3-(4-{[3-Chloro-5-(4-chlorophenyl)isothiazol-4-yl]methoxy}-3,5-difluorophenyl)propan-1-ol] were 28 nM and 50 nM.
